Reference: US6649605B2, “Treatment of tension-type headaches with NMDA receptor antagonists” (Head Explorer A/S, priority 1996, dated 2003)
“And” between values parts separate entries of the source, which are not always exact repeats. Equal values may be shown once. “Also recorded” adds a separate entry of the source.

What was measured:
Type in all cases: in vivo, human
[1] = system: patients with chronic tension-type headache; test: Blood pressure, pulse rate, adverse events and rescue medication after L-NMMA infusion
Procedure: Randomization (Med.Stat) and drug preparation were performed by staff not involved in the study. The medication was given over 15 minutes into an antecubital vein (Braun Perfusor). The following parameters were measured at baseline and […] post administration: headache intensity on a 100-mm Visual Analog Scale (VAS) (0-no headache and 100-worst imaginable headache) and on a Verbal Rating Scale (VRS) from 0-10 (0-no headache; 5-moderate headache; 10-worst imaginable headache). Blood pressure and pulse rate were measured 5 minutes prior to administration of treatment and at 5, 10, 15, 20, 25, 30, 60, 90 and 120 minutes post administration. Twelve-lead ECG was monitored continuously. Any adverse events were recorded. Patient with unrelieved headache at 120 minutes post treatment were allowed to take rescue medication. All patients were asked to record details of the following on a diary card at 4, 8, 12, 16, 20 and 24 hours post administration, headache intensity on VRS, any medication taken and adverse events. Between 4-7 days after each treatment, the patients returned to the clinic, the diary cards were collected and any adverse events were noted.
Primary endpoint was the reduction of pain intensity over time on active treatment compared to placebo. The secondary endpoints were reduction of pain intensity at 30, 60, 90 and 120 minutes post dosing on VAS and VRS compared to pre-treatment pain score within each treatment. Comparison of pain intensity on VAS, blood pressure and pulse rate over time between treatments were performed With ANOVA. Paired-Samples T Test was used to compare pre-treatment pain score on VAS with pain score at 30, 60, 90, 120 minutes post dosing within each treatment. The sum of differences between the pre-treatment VRS score and the VRS score at 30, 60, 90, 120 minutes post dosing was calculated in order to obtained a summary measure of pain score for each treatment (Matthews et al. 1990). These sums of differences for each treatment were compared by Wilcoxon Signed Rank test. Five percent was accepted as level of significance.

[2] = system: patients with chronic tension-type headache; test: Pressure pain detection thresholds (electronic pressure algometer) after L-NMMA
From the text: (§1) Sixteen patients with a diagnosis of chronic tension-type headache according to the criteria of the International Headache Society (Headache Classification Committee 1988) were included (Table XVII). Five of the patients had coexisting infrequent migraine (<four days/year). The patients were recruited from the out-patient headache clinic at Glostrup University Hospital without respect to presence or absence of myofascial tenderness. All patients underwent a general physical and a neurological examination and completed a diagnostic headache diary during a 4-week run-in period (Russell et al. 1992). […]
(§2) The recordings were performed in a standardized manner by the same observer, a trained technician (HA), throughout the study. All parameters were recorded at baseline, 60 and 120 minutes after start of infusion. […] Headache intensity was measured on a 100 mm Visual Analog Scale (VAS) (0-no headache and 100-worst imaginable headache) before, during and after start of infusion.
Pressure pain thresholds Pressure pain detection thresholds (PPDTs) were measured at the dorsum of the second finger (middle phalanx) and at a fixed point at the anterior part of the temporal muscle as previously described (Bendtsen et al. 1996b). […] Each threshold was calculated as the mean of five consecutive determinations performed with intervals of approximately 30 seconds. […]

[3] = system: trapezius muscle of patients with chronic tension-type headache; test: Muscle hardness of the trapezius muscle (hardness meter) after L-NMMA; conditions: 6 mg/kg i.v.
From the text: as §1
Muscle hardness. The muscle hardness of the trapezius muscle was measured with a hardness meter, which has previously been described in detail (Horikawa et al. 1993). […]
as §2
Muscle hardness. The muscle hardness was measured at a standard anatomical point on the trapezius muscle On the non-dominant side, as previously described (Ashina et al. 1998b). […] The muscle hardness was calculated as the mean of five consecutive determinations. […]

## CN=C(N)NCCC[C@H](N)C(=O)O.Cl [L-NMMA, L-N^G methyl arginine hydrochloride]
[1]; 6 mg/kg i.v.
  Subjective symptoms reported (number of patients): tiredness (2), dryness of the mouth (3), drowsiness (1), exhaustion (1), nausea (1) and a feeling of tingling in arm (1)
[1]; 6 mg/kg i.v., p=0.0001 and p=0.0001
  MAP and pulse rate over time compared with placebo: changed significantly over time
[1]; after start of infusion
  Time at which the difference in MAP and pulse rate to placebo disappeared: 60 min
[1]; occurred 10 minutes post dosing, 6 mg/kg i.v., hydrochloride, 6 mg/kg
  Maximum decrease in pulse rate: 16±2% and 16%
[1]; occurred 15 minutes post dosing, 6 mg/kg i.v., hydrochloride, 6 mg/kg
  Maximum increase in mean arterial blood pressure (MAP): 12±2% and 12%
[1]; of 16 patients, 6 mg/kg i.v.
  Patients who reported subjective symptoms in relation to the infusion: Seven
[1]; of 16 patients, 7 on placebo
  Patients who used simple analgesics as rescue medication: Three
[2]; finger and temporal region, hydrochloride
  PPDTs compared with pre-treatment values: no changes in PPDTs at 60 and 120 minutes; also recorded: largely unchanged
[2]; finger p=0.78, temporal region p=0.77
  PPDTs compared with placebo: no significant difference
[3]; p=0.04, hydrochloride
  Muscle hardness (summary score) compared with placebo: significantly more reduced; also recorded: reduces muscle hardness; also recorded: reduced significantly more; also recorded: significantly reduced
[3]; p=0.04 and p<0.05
  Muscle hardness compared with baseline: significantly reduced at 60 and 120 minutes
